Experimental findings from PMC2009935, “Biological activities of dihydrodiols derived from two polycyclic hydrocarbons in rodent test systems” (British Journal of Cancer, 1979) are described below.

In series [1] the test system is mouse skin.
The test system of series [2] is mouse skin. In words: Short-term test on mouse skin: suppression of sebaceous glands.
Another series has as its system Wistar rats. As to the kind of experiment: Induction of sarcomas after s.c. injection into Wistar rats.
The subject of series [3] is mouse skin. Particulars: total doses 75-150 ug in 3 applications.
Where [4] appears, read: single dose 25 ug, TPA promotion.
[5] abbreviates: female Wistar rats, single s.c. injection 0.9 mg in olive oil, up to 9 months.

A value given as a limit tells only on which side of the number the result lay.

Turning to `Cc1c2ccccc2cc2c1ccc1ccccc12` [7-methylbenz[a]anthracene, reference compound], in the series on mouse skin [1] (female CDI mice, single dose 25 ug in acetone on dorsal skin, TPA thrice weekly for 52 weeks), the “tumour-initiating activity on mouse skin (in words)” value was “more active than the related 1,2-, 5,6- and 8,9-dihydrodiols”. Also, the “skin-tumour incidence plateau, first or only, time after initiation” value with mouse skin [1] (setting [4]) is greater than 40 weeks.

As for `Cc1c2ccccc2cc2c3c(ccc12)C=C[C@@H](O)[C@@H]3O` (relative stereo) [1,2-dihydrodiol, trans-1,2-Dihydro-1,2-dihydroxy-7-methylbenz[a]anthracene], in the series with mouse skin [1] (setting [4]), the “tumour development in the initiated mice (in words)” value is listed as “only really increased after the amount of TPA applied had been doubled”.

With `Cc1c2c(cc3c1ccc1ccccc13)C=C[C@@H](O)[C@@H]2O` (relative stereo) [8,9-dihydrodiol, trans-8,9-dihydro-8,9-dihydroxy-7-methylbenz[a]anthracene], in the series with mouse skin [1] (setting [4]), the “tumour development in the initiated mice (in words)” value is on record as “only really increased after the amount of TPA applied had been doubled”.

`c1ccc2c(c1)cc1ccc3cccc4ccc2c1c34` [BP, benzo[a]pyrene, reference compound]: the “Sebaceous glands, No. present” value in the series on mouse skin [2] (total dose 150.0 ug in 3 applications in acetone, 8 days after first treatment, 12 microscopic fields) is 0.0. In the series on Wistar rats (Table III, female Wistar rats, single s.c. injection 0.9 mg in 0.5 ml olive oil, up to 9 months, 30 animals), this molecule had a No. with sarcomas of 24. Besides, in the series with Wistar rats (setting [5]), the “sarcomas induced in the group of rats” value is given as 24/30.

Regarding `O[C@H]1C=Cc2c(cc3ccc4cccc5ccc2c3c45)[C@@H]1O` (relative stereo) [trans-7,8-Dihydro-7,8-dihydroxy-BP, trans-7,8-Dihydro-7,8-dihydroxybenzo[a]pyrene], the “suppression of sebaceous glands in mouse skin (in words)” value in the series with mouse skin [2] (total doses 75-150 ug in 3 applications) is “some activity”. Besides, the “induction of hyperplasia in mouse skin (in words)” value in the series on mouse skin [3] is reported as “some activity as a hyperplastic agent”. Further, the “sarcomas induced in the group of rats” value with Wistar rats (setting [5]) is recorded as “one”. In addition, the “activity as s.c. carcinogen in rats (in words)” value with Wistar rats (single s.c. injection 0.9 mg in olive oil) was “very much less active than benzo[a]pyrene as an s.c. carcinogen in rats”.
